Our source for the remaining binding values is publication PMC5862592, “CDK8/19 inhibition induces premature G1/S transition and ATR-dependent cell death in prostate cancer cells” (Oncotarget, 2018).

Molecules are shown by their SMILES. Like-named read-outs stand apart in the source and are kept apart here.

Common to all, as to experiment: biochemical
Common to all, as to design: KINOMEscan active site-directed competition binding assay (DiscoveRx), 456 kinases, per cent of control at 300 nM
What all share (conditions): read-out: Percent of Control (%)

One assay deals with BRAF(V600E) (Homo sapiens, UniProt P15056, V600E). The gist of the method: (§1)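 Single-concentration selectivity screen: compound 300 nmol/L; 456-kinase panel; active-site-directed competition binding read-out.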
The next assay addresses CAMK4 (Homo sapiens, UniProt Q16566). The gist of the method:
as §1

For another assay, the target named is CIT (Homo sapiens, UniProt O14578). In a few lines: as §1
The target in the next assay is DYRK1A (Homo sapiens, UniProt Q13627). The gist of the method: as §1
In another assay the target is ERBB2 (Homo sapiens, UniProt P04626). In a few lines:
as §1

The next assay deals with FLT3(N841I) (Homo sapiens, UniProt P36888, N841I). The gist of the method:
as §1

The target in a further assay is T1, GCN2(Kin.Dom.2,S808G) (Homo sapiens, UniProt Q9P2K8, S808G).
T1 construct: gene EIF2AK4; Kin.Dom.2
In a few lines: as §1

In another assay the target is GRK1 (Homo sapiens, UniProt Q15835). The gist of the method:
as §1

In a further assay the target is KIT(D816H) (Homo sapiens, UniProt P10721, D816H). In a few lines: as §1
The target of a further assay is MARK2 (Homo sapiens, UniProt Q7KZI7). In a few lines: as §1
For a further assay, the target named is T2, MINK (Homo sapiens, UniProt Q8N4C8).
T2 construct: gene MINK1
The gist of the method: as §1

A further assay has as its target T3, MRCKA (Homo sapiens, UniProt Q5VT25).
T3 construct: gene CDC42BPA
In a few lines:
as §1

The next assay concerns the target NEK4 (Homo sapiens, UniProt P51957). In a few lines: as §1
The target in a further assay is PIM2 (Homo sapiens, UniProt Q9P1W9). The gist of the method:
as §1

The target of another assay is PRKCH (Homo sapiens, UniProt P24723). In a few lines:
as §1

Another assay concerns the target ROS1 (Homo sapiens, UniProt P08922). The gist of the method: as §1
For assay [1], the target named is T4, RPS6KA4(Kin.Dom.1-N-terminal) (Homo sapiens, UniProt O75676).
T4 construct: Kin.Dom.1-N-terminal
T4 sequence (O75676 whole entry): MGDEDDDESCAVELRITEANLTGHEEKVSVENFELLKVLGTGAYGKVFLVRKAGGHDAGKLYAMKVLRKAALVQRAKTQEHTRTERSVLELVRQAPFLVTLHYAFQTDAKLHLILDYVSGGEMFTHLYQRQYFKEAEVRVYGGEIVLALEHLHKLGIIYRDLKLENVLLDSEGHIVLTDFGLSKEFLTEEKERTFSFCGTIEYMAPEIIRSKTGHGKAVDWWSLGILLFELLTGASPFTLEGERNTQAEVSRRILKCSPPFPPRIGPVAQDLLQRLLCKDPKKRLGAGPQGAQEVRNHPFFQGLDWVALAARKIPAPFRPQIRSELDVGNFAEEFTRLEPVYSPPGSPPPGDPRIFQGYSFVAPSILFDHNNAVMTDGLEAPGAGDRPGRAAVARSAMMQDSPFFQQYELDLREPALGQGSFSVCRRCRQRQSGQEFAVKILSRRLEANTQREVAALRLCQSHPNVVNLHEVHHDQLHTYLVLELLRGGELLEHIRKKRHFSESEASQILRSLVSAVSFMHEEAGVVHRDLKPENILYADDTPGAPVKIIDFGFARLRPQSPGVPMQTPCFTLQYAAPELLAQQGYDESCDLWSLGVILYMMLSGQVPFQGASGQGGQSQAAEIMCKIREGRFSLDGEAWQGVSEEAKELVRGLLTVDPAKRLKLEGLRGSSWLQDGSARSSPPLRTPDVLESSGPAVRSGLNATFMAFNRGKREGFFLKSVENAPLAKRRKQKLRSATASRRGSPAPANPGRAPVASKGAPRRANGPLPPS
The gist of the method:
as §1

Another assay addresses T5, SIK (Homo sapiens, UniProt P57059).
T5 construct: gene SIK1
In a few lines:
as §1

In the next assay the target is SNRK (Homo sapiens, UniProt Q9NRH2). The gist of the method:
as §1

The target in another assay is TAOK3 (Homo sapiens, UniProt Q9H2K8). The gist of the method:
as §1

The target of a further assay is T6, TRKB (Homo sapiens, UniProt Q16620).
T6 construct: gene NTRK2
T6 sequence (Q16620 whole entry): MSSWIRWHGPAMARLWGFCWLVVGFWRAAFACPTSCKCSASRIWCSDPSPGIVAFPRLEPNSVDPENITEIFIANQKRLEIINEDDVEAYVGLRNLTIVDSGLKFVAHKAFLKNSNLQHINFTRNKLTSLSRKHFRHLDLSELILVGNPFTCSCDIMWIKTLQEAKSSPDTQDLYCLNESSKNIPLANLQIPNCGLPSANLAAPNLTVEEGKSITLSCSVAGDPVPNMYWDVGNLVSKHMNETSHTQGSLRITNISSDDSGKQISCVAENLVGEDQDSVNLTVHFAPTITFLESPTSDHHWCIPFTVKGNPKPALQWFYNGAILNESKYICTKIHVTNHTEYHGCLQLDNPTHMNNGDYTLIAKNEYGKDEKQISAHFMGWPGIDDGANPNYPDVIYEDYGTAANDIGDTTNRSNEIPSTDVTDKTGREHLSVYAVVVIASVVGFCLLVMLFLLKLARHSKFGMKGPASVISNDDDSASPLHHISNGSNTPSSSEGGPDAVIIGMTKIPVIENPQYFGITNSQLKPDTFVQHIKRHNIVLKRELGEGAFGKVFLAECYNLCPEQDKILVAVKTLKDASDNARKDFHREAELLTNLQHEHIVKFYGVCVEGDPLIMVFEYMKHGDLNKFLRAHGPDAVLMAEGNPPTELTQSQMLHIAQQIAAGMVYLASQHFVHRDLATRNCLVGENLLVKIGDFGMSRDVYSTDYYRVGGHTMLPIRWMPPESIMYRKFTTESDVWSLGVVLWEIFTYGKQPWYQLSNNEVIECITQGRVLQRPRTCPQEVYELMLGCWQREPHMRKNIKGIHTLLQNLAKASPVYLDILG
The gist of the method:
as §1

T3 sequence (Q5VT25 whole entry): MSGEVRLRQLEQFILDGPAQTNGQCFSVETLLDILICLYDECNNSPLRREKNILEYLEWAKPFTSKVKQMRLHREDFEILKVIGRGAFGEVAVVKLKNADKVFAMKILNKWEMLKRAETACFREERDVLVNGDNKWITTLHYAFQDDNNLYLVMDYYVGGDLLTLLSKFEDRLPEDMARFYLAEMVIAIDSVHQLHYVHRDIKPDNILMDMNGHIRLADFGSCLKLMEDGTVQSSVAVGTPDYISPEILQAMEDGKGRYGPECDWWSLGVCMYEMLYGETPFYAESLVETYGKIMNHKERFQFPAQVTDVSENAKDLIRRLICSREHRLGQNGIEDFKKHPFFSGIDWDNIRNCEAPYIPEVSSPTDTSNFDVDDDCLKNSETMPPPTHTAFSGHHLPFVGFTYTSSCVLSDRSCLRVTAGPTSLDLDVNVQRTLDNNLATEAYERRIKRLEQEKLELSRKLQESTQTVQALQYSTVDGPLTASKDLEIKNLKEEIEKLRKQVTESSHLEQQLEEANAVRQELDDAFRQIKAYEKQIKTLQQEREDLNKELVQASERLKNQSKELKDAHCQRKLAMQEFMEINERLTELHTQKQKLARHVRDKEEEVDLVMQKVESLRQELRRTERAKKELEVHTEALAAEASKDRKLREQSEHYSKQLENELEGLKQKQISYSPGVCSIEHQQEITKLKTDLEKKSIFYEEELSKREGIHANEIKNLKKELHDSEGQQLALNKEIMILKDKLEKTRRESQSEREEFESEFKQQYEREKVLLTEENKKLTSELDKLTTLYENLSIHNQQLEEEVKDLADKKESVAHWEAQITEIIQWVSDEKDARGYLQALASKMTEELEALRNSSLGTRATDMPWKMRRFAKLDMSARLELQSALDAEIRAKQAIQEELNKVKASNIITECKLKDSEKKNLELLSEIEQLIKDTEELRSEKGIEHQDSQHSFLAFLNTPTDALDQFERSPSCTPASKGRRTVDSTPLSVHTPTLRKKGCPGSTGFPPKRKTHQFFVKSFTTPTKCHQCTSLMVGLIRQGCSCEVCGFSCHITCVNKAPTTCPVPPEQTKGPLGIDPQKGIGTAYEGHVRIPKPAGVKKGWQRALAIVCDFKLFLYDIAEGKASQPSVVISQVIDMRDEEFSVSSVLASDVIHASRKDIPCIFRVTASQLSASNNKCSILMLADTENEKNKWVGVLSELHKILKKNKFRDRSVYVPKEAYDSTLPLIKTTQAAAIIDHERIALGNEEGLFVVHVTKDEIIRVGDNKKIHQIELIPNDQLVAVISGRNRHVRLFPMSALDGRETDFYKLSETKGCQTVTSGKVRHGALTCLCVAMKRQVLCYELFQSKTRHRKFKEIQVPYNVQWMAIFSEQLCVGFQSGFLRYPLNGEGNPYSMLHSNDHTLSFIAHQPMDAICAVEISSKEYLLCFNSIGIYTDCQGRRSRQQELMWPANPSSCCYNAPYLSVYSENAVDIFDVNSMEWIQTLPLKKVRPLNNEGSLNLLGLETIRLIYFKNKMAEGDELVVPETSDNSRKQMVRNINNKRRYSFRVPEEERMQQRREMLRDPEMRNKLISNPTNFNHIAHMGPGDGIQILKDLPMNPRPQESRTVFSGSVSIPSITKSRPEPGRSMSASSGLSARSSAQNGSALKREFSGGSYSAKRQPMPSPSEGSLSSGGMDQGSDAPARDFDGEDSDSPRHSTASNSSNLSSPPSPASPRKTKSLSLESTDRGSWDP
CAMK4, sequence (Q16566 whole entry): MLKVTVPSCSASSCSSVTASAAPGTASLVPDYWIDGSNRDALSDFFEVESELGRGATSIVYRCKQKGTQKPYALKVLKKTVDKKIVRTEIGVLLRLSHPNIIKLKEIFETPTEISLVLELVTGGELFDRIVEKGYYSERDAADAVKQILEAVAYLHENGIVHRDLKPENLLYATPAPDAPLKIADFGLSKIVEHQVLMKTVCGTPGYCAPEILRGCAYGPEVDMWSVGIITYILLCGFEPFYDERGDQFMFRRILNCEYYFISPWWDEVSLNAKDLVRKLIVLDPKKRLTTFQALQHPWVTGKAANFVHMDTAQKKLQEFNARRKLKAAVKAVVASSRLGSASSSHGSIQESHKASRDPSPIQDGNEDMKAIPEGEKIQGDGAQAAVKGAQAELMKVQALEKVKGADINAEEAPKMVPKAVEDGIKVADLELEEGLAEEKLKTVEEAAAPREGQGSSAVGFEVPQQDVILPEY
ERBB2, sequence (P04626 whole entry): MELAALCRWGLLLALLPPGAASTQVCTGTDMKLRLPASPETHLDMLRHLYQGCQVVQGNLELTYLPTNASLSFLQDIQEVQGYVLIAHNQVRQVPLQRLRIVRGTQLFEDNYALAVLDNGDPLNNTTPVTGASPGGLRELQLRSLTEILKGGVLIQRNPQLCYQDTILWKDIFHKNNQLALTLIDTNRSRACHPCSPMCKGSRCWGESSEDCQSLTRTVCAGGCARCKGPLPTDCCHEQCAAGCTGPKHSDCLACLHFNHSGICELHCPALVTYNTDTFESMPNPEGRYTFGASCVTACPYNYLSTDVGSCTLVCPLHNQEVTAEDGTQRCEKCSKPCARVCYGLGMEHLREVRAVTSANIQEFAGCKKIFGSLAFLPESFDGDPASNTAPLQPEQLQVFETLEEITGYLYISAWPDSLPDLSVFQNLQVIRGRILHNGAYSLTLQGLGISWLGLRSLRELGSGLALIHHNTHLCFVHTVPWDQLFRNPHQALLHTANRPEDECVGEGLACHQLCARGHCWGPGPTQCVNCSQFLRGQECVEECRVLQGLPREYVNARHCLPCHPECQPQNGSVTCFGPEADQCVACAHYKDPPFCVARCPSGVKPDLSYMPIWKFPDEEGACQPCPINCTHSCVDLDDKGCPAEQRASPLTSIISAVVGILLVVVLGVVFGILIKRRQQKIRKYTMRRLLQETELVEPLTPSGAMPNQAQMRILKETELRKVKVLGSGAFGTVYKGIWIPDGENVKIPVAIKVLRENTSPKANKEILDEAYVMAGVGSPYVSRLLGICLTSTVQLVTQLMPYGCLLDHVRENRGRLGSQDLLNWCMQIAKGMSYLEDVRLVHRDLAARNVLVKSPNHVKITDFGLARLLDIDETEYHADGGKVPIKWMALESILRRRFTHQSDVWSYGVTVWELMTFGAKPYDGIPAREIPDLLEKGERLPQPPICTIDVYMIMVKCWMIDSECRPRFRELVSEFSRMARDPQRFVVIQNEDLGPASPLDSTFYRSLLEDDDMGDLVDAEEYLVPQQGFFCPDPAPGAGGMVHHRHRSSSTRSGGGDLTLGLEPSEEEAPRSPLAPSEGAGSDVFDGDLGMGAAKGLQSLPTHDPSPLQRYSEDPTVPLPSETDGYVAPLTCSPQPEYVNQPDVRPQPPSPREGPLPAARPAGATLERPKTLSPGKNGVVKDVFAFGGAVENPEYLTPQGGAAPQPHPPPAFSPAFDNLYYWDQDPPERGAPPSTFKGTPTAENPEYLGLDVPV

`O=C(/C=C/c1cnccc1-c1ccc(F)cc1)Nc1ccc(CCc2nnco2)cc1` [T-418, (2E)-3-(4-(4-fluorophenyl)pyridin-3-yl)-N-(4-(2-(1,3,4-oxadiazol-2-yl)ethyl)phenyl)acrylamide]: the remaining binding at 0.3 µM at BRAF(V600E) (sheet T-418) is 100%; at CAMK4 (sheet T-418), 78%; on CIT (sheet T-418), 95%; on DYRK1A (sheet T-418), 100%; at ERBB2 (sheet T-418), 52%; on FLT3(N841I) (sheet T-418), 79%. Moreover, the remaining binding at 0.3 µM on GCN2(Kin.Dom.2,S808G) (sheet T-418) is 100%; at GRK1 (sheet T-418) it was 100%; at KIT(D816H) (sheet T-418), 74%; at MARK2 (sheet T-418), 100%; at MINK (sheet T-418), 80%; on MRCKA (sheet T-418), 100%. Moreover, the remaining binding at 0.3 µM at NEK4 (sheet T-418) was found to be 100%; on PIM2 (sheet T-418) it was 89%; on PRKCH (sheet T-418), 88%; on ROS1 (sheet T-418), 100%; in assay [1] (sheet T-418), 90%; on SIK (sheet T-418), 87%. Moreover, the remaining binding at 0.3 µM on SNRK (sheet T-418) is 73%; at TAOK3 (sheet T-418), 90%; on TRKB (sheet T-418), 100%.
For `Cc1ncccc1Oc1sc(C(N)=O)c2c1-c1c(cnn1C)CC2` [T-474, 1-methyl-8-((2-methylpyridin-3-yl)oxy)-4,5-dihydro-1H-thieno[3,4-g]indazole-6-carboxamide], the remaining binding at 0.3 µM on BRAF(V600E) was found to be 100%; on CAMK4 it was 100%; at CIT, 93%; on DYRK1A, 66%; on ERBB2, 47%; at FLT3(N841I), 97%. For the same compound, the remaining binding at 0.3 µM stood at 100% at GCN2(Kin.Dom.2,S808G); 100% at GRK1; 78% at KIT(D816H); 100% on MARK2; 100% at MINK; 100% on MRCKA. The remaining binding at 0.3 µM at NEK4 is 100%; on PIM2 it was 80%; at PRKCH, 100%; on ROS1 it was 100%; in [1], 100%; at SIK it was 100%. The remaining binding at 0.3 µM worked out at 71% at SNRK, 88% at TAOK3 and 92% at TRKB.
